A value given as a limit tells only on which side of the number the result lay.

The test addresses Recombinant human BRD4(1-477) (Homo sapiens (Human), UniProt O60885). The experiment in a line: BRD4 TR-FRET biochemical IC50 assay. Format: binding. As to conditions: TR-FRET, tetra-acetylated histone peptide; read-out: BRD4 IC50. On the technique in general: TR-FRET usually uses a lanthanide donor and a delayed reading to cut background.
In the case of `COc1cc(-c2c(C)noc2C)cc2c1NC(=O)C2(O)c1ccccc1` (centres unmarked) [Compound 5.1, 5-(3,5-Dimethylisoxazol-4-yl)-3-hydroxy-7-methoxy-3-phenylindolin-2-one], the IC50 – broadly, the concentration that inhibits the measured activity by half – was determined as 450 nM. `Cc1noc(C)c1-c1ccc2c(c1)C(N[C@@H](CO)C(C)C)(C1CCCCC1)C(=O)N2` (single isomer, unassigned) [Compound 2.20a]: the IC50 was found to be 5100 nM. With `Cc1noc(C)c1-c1ccc2c(c1)C(c1ccccc1)(N1CCC[C@@H](NC(=O)OC(C)(C)C)C1)C(=O)N2` (some centres unmarked) [Compound 2.43], the half-inhibitory concentration (IC50) stood at 510 nM. For `C=C(C)CC1(O)C(=O)Nc2ccc(-c3c(C)noc3C)cc21` (centres unmarked) [Compound 1.28, 5-(3,5-dimethylisoxazol-4-yl)-3-hydroxy-2-(2-methylallyl)indolin-2-one] the value was 3900 nM. Next, `Cc1noc(C)c1-c1ccc2c(c1)C(c1ccccc1)(N1CCC[C@H]1CO)C(=O)N2` (some centres unmarked) [Compound 2.53, 5-(3,5-Dimethylisoxazol-4-yl)-3-((s)-2-(hydroxymethyl)pyrrolidin-1-yl)-3-phenylindolin-2-one]: 90 nM; `Cc1noc(C)c1-c1ccc2c(c1)C(O)(C1CCCCC1=O)C(=O)N2` (single isomer, unassigned) [Compound 1.30b, 5-(3,5-Dimethylisoxazol-4-yl)-3-hydroxy-3-(2-oxocyclohexyl)indolin-2-one]: 650 nM. For `Cc1noc(C)c1-c1ccc2c(c1)C(O)(C#Cc1ccccc1)C(=O)N2` (centres unmarked) [Compound 1.12, 5-(3,5-dimethylisoxazol-4-yl)-3-hydroxy-3-(phenylethynyl)indolin-2-one], the concentration for half-maximal inhibition (IC50) turned out to be 2300 nM.

For the compound `Cc1noc(C)c1-c1ccc2c(c1)C(N[C@H](CO)C(C)C)(C1CCCCC1)C(=O)N2` (single isomer, unassigned) [Compound 2.19a], the half-maximal inhibitory concentration (IC50) is above 10000 nM.

On to `Cc1noc(C)c1-c1ccc2c(c1)C(c1ccccc1)(N1CC[C@@H](NC(=O)OC(C)(C)C)C1)C(=O)N2` (some centres unmarked) [Compound 2.41, Tert-butyl (3r)-1-(5-(3,5-dimethylisoxazol-4-yl)-2-oxo-3-phenylindolin-3-yl)pyrrolidin-3-ylcarbamate], for which the IC50 was found to be 440 nM. Next, `Cc1noc(C)c1-c1ccc2c(c1)C(NCCC(C)C)(C1CCCCC1)C(=O)N2` (centres unmarked) [Compound 2.25, 3-cyclohexyl-5-(3,5-dimethylisoxazol-4-yl)-3-(isopentylamino)indolin-2-one]: 3700 nM. Regarding `Cc1noc(C)c1-c1ccc2c(c1)C(c1ccccc1)(N1C[C@@H](O)C[C@H]1CO)C(=O)N2` (single isomer, unassigned) [Compound 2.51a], the 50% inhibitory concentration (IC50) amounted to 1400 nM. On to `Cc1noc(C)c1-c1ccc2c(c1)C(O)(CCCc1ccccc1)C(=O)N2` (centres unmarked) [Compound 1.29, 5-(3,5-dimethylisoxazol-4-yl)-3-hydroxy-3-(3-phenylpropyl)indolin-2-one], for which the IC50 stood at 1600 nM. Next, `Cc1noc(C)c1-c1ccc2c(c1)C(c1ccccc1)(N1CC[C@@H](N)C1)C(=O)N2` (stereo partly drawn) [Compound 2.42, 3-((R)-3-aminopyrrolidin-1-yl)-5-(3,5-dimethylisoxazol-4-yl)-3-phenylindolin-2-one]: 27 nM. On to `Cc1noc(C)c1-c1ccc2c(c1)C(N[C@@H](CO)c1ccccc1)(c1ccccc1)C(=O)N2` (single isomer, unassigned) [Compound 2.7a], for which the IC50 was above 10000 nM.

Take `Cc1noc(C)c1-c1ccc2c(c1)C(N)(c1ccc(F)cc1)C(=O)N2` (centres unmarked) [Compound 2.59, 3-amino-5-(3,5-dimethylisoxazol-4-yl)-3-(4-fluorophenyl)indolin-2-one]: the concentration for half-maximal inhibition (IC50) turned out to be 97 nM.

On to `Cc1noc(C)c1-c1ccc2c(c1)C(C1CCCCC1)(N1CCC(O)CC1)C(=O)N2` (centres unmarked) [Compound 2.31, 3-cyclohexyl-5-(3,5-dimethylisoxazol-4-yl)-3-(4-hydroxypiperidin-1-yl)indolin-2-one], for which the half-inhibitory concentration (IC50) amounted to 37 nM. Regarding `Cc1noc(C)c1-c1ccc2c(c1)C(CC(=O)O)(c1ccccc1)C(=O)N2` (centres unmarked) [Compound 3.4, 2-(5-(3,5-dimethylisoxazol-4-yl)-2-oxo-3-phenylindolin-3-yl)acetic acid], the concentration for half-maximal inhibition (IC50) stood at 6100 nM.

These data come from patent US9393232B2 (BeiGene, Ltd., priority 2013, dated 2016).
